Key:
[1] = tested on: U-87 MG glioma cells; assay: CCK-8 cell viability assay, U-87 MG; type: cell-based, human; details: U-87 MG glioma / glioblastoma cells
[2] = tested on: U-87 MG cells; assay: Flow cytometry; type: cell-based, human; details: IC50 concentrations, 24 h

COc1c(O)cc2c(c1OC)-c1ccc(O)cc1CC2 [compound 7, erianthridin]
cytotoxic activity (in words) [1]: no cytotoxic activity

COc1c(O)cc2ccc3cc(O)ccc3c2c1OC [compound 6, nudol]
cytotoxic activity (in words) [1]: no cytotoxic activity

COc1cccc2c1C(=O)c1c(O)c3c(c(O)c1C2=O)C[C@@](O)(C(=O)CO)C[C@@H]3O[C@H]1C[C@H](N)[C@H](O)[C@H](C)O1 [DOX, doxorubicin]
induction of apoptosis (Annexin V-FITC/PI, in words) [2]: induce apoptosis

From PMC12268434 (ACS Omega, 2025)
